Reference: ChEMBL document CHEMBL5550133, “Update on the development of TGR5 agonists for human diseases” (Eur J Med Chem, 2024)
In brackets after ≈: the same amount, converted by molar mass. One block for each molecule: values may come before it.

Experiments:
[1] = target: Cytochrome P450 3A4 (Homo sapiens, UniProt P08684); experiment: Inhibition of CYP3A4 (unknown origin); format: ADME
[2] = target: T1, G-protein coupled bile acid receptor 1 (Mus musculus, UniProt Q80SS6); experiment: Agonist activity at mouse TGR5 receptor; format: functional
T1 sequence (Q80SS6 whole entry): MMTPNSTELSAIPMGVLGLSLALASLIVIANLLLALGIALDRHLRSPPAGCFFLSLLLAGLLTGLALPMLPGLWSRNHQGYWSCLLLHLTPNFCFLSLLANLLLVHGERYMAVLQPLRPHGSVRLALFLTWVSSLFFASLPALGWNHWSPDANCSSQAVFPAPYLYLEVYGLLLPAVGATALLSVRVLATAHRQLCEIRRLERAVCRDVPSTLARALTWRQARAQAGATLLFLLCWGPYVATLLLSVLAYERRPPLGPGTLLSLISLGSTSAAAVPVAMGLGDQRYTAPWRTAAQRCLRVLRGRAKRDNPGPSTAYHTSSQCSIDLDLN

[3] = target: T2, G-protein coupled bile acid receptor 1 (Homo sapiens, UniProt Q8TDU6); experiment: Agonist activity at TGR5 (unknown origin) expressed in HEK293 cells; format: functional, cell-based
T2 sequence (Q8TDU6 whole entry): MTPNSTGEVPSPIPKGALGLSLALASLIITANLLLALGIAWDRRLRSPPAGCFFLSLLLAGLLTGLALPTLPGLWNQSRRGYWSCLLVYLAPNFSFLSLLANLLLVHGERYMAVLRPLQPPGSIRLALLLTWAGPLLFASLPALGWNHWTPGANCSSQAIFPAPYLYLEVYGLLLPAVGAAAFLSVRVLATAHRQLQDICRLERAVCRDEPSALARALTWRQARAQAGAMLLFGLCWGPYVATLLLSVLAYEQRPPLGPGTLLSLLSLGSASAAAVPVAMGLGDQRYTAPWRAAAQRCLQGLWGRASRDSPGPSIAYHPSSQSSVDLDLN

[4] = target: Cytochrome P450 2C9 (Homo sapiens, UniProt P11712); experiment: Inhibition of CYP2C9 (unknown origin); format: ADME
[5] = Clearance in human liver microsomes; format: ADME, Microsome; settings: read-out: CLH
[6] = Oral bioavailability in mouse at 2 mg/kg; format: ADME, organism-based; settings: in vivo
[7] = target: CYP450 (isoform not specified) (Homo sapiens, UniProt P04798+P05177+P05181+P08684+P10632+P10635+P11509+P11712+P13584+P20813+P20815+P20853+P24462+P24903+P33260+P33261+P51589+P78329+P98187+Q02928+Q08477+Q16678+Q16696+Q5TCH4+Q6VVX0+Q7Z449+Q8TAV3+Q96SQ9+Q9HB55); experiment: Inhibition of CYP450 (unknown origin); format: ADME, protein assay
[8] = target: T1, G-protein coupled bile acid receptor 1; experiment: Agonist activity at mouse TGR5 receptor expressed in HEK293 cells assessed as activation of intracellular cAMP production incubated for 2 hrs by luciferase reporter gene assay; format: functional, cell-based
[9] = target: T2, G-protein coupled bile acid receptor 1; experiment: Agonist activity at human TGR5; format: functional
[10] = target: T2, G-protein coupled bile acid receptor 1; experiment: Agonist activity at TGR5 (unknown origin) in CHO-K1 cells; format: functional, cell-based
[11] = target: T3, G-protein coupled bile acid receptor 1 (Homo sapiens) (UniProt Q8TDU6); experiment: Agonist activity at TGR5 in human NCI-H716 cells assessed as increase in GLP-1 secretion at 5 uM measured for 60 mins by SEAP reporter gene based assay relative to control; format: functional, cell-based; settings: filed as agonist
T3 sequence (whole entry): T2 sequence (Q8TDU6 whole entry)

[12] = target: T2, G-protein coupled bile acid receptor 1; experiment: Agonist activity at TGR5 in HEK293 cells; format: functional, cell-based
[13] = Aqueous solubility of compound; format: physicochemical; settings: aqueous (not further specified)
[14] = target: T2, G-protein coupled bile acid receptor 1; experiment: Agonist activity at TGR5 (unknown origin); format: functional
[15] = target: T2, G-protein coupled bile acid receptor 1; experiment: Agonist activity at TGR5 receptor in human NCI-H716 cells assessed as activation of intracellular cAMP production incubated for 1 hr by TR-FRET assay; format: functional, cell-based

Sequence of Cytochrome P450 3A4 (P08684 whole entry): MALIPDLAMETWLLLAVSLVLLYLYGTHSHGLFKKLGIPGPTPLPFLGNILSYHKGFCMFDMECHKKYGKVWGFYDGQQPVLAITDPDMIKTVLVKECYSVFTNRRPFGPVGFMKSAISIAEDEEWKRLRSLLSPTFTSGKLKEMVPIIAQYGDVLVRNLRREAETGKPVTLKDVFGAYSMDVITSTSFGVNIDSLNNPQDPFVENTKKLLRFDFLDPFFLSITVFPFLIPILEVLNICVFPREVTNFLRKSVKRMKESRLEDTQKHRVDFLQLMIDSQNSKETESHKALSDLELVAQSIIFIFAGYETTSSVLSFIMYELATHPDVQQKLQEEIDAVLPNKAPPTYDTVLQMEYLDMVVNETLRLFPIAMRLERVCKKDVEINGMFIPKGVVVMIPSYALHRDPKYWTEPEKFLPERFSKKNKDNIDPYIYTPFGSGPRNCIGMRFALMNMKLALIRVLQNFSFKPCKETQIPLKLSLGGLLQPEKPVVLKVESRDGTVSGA
Sequence of Cytochrome P450 2C9 (P11712 whole entry): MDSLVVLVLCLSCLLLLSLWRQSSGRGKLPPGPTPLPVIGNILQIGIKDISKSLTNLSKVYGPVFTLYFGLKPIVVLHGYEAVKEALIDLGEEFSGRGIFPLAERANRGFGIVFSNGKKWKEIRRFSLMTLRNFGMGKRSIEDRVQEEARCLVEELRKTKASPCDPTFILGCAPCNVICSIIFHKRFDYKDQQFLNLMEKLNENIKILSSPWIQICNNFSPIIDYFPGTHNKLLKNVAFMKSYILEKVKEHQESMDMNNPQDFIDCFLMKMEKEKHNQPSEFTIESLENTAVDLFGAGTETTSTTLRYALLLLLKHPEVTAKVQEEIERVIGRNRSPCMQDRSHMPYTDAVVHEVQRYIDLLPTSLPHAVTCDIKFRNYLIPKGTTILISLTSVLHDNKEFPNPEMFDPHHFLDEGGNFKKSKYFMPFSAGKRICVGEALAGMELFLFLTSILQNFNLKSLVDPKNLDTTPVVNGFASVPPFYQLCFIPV

- IC50 [1]: 300 nM
- EC50 [2]: 520 nM
- EC50 [3]: 10 nM
- IC50 [4]: 8200 nM
- CLint scaled [5]: 578 mL/min/kg
Compound: O=C(c1cccnc1Oc1cc(Cl)ccc1Cl)N1CCN(C2COC2)c2ccccc21

- bioavailability [6]: 100%
Compound: Cc1cc(/C(C[C@H](c2ccc(C3CCC(C(=O)O)CC3)cc2)c2ccccc2C)=N\O)ccn1 (stereo partly specified)

- EC50 [8]: 74 nM
Compound: CN(CC[N+](C)(C)C)C(=O)CCc1cc(Cl)c(Oc2ccsc2C(=O)N2CCSc3ccccc32)cc1Cl

- IC50 [1]: > 10000 nM
- EC50 [3]: 70 nM
- IC50 [4]: > 10000 nM
- CLint scaled [5]: 56 mL/min/kg
Compound: O=C(Nc1nnn[nH]1)c1cc(Cl)c(Oc2ncccc2C(=O)N2CCN(C3CC3)c3ccccc32)cc1Cl

- Activity [11]: 111%
Compound: CC(c1cc(C(F)(F)F)cc(C(F)(F)F)c1)N1CCOc2nccc(-c3ccccc3)c2C1 (stereo unspecified)

- IC50 [1]: 5900 nM
- solubility [13]: 1 µg/mL (≈ 2.51 µM)
- IC50 [4]: 2200 nM
Compound: O=C(c1cccnc1Oc1cccc(C(F)(F)F)c1)N1CCCc2ccccc21

Continued, molecule first:

Compound: COc1cc(-n2c(N(C)c3ccc(OC)c(OC)c3)cnc2SCc2c(F)cc(OCCCS(=O)(=O)O)cc2F)ccc1F
- EC50 [2]: 0.5 nM

Compound: CCc1onc(-c2ccccc2)c1C(=O)N(C)c1ccc(Cl)cc1
- IC50 [7]: 251 nM

Compound: CN(Cc1cnccc1-c1ccccc1F)C(C#N)c1cc(C(F)(F)F)cc(C(F)(F)F)c1 (stereo unspecified)
- EC50 [9]: 35 nM
- EC50 [2]: 150 nM

Compound: CC1(C)CC[C@]2(C(=O)O)CC[C@]3(C)C(=CC[C@@H]4[C@@]5(C)C[C@@H](O)[C@H](O)C(C)(C)[C@@H]5CC[C@]43C)[C@@H]2C1 [MASLINIC ACID]
- EC50 [10]: 3700 nM

Compound: CC(C)[C@@H](CO)NC(=O)CC[C@@H](C)[C@H]1CC[C@H]2[C@@H]3[C@@H](OC=O)C[C@@H]4C[C@H](OC=O)CC[C@]4(C)[C@H]3CC[C@]12C
- EC50 [12]: 110 nM

Compound: Fc1cccc(F)c1-c1ccncc1CN1C(c2ccco2)=NO[C@@H]1c1cc(C(F)(F)F)cc(C(F)(F)F)c1Cl
- EC50 [2]: 249 nM

Compound: C[C@H]1[C@H](C)CC[C@]2(C(=O)O)CC[C@]3(C)C(=CC[C@@H]4[C@@]5(C)C[C@@H](O)[C@H](O)C(C)(C)[C@@H]5CC[C@]43C)[C@H]12 [COROSOLIC ACID]
- EC50 [10]: 500 nM

Compound: COC(=O)NCc1cccc([C@H]2O[C@H](CC(=O)NCc3ccccc3F)C(=O)N(CC(C)(C)COC(C)=O)c3ccc(Cl)cc32)c1
- Activity [11]: 165%

Compound: CO[C@H]1C[C@H]2[C@@H]([C@H](OC)C[C@@H]3C[C@H](O)CC[C@@]32C)[C@@H]2CC[C@H]([C@H](C)CCC(=O)N3CCCC3)[C@@]12C
- EC50 [14]: 150 nM

Compound: COc1ccc(S(=O)(=O)N2CCCN(S(=O)(=O)c3ccc(OC)c(OC)c3)CC2)cc1OC [SB-756050]
- EC50 [15]: 1300 nM
